Assay results taken from ChEMBL document CHEMBL3217672, “Optimization of a series of dipeptides with a P3 -neopentyl asparagine residue as non-covalent inhibitors of the chymotrypsin-like activity of human 20S proteasome” (Medchemcomm, 2012).
pIC50: −log10 of the molar value. Activity calls are given as the source filed them. The rule behind the calls is not given here.

Experiments:
[1] = Cytotoxicity against human Calu6 cells after 72 hrs by luminescence assay; assay type: functional; conditions: Calu-6, 72 h, read-out: LC50 (the source's name)
[2] = target: T1, Proteasome Macropain subunit MB1 (Homo sapiens, UniProt P28074); experiment: Inhibition of 20S proteasome beta5 subunit in human erythrocytes using Ac-WLA-AMC as substrate by fluorescence assay; assay type: cell-based
T1 sequence (P28074 whole entry): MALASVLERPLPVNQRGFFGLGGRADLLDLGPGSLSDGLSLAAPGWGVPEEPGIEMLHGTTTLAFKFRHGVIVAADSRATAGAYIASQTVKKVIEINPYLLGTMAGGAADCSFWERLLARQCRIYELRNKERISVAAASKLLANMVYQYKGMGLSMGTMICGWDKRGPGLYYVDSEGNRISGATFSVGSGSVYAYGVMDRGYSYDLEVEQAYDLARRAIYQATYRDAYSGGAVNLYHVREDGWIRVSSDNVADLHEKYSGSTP

[3] = target: T1, Proteasome Macropain subunit MB1; experiment: Inhibition of 26S proteasome beta5 subunit in human Calu6 cells using Suc-LLVY-aminoluciferin as substrate after 1hr by luminescence assay; assay type: cell-based, Calu-6
[4] = target: Prothrombin (Homo sapiens) (UniProt P00734); experiment: Inhibition of human purified thrombin at 100 uM
Homo sapiens [5] = organism: Homo sapiens; experiment: Inhibition of human purified chymotrypsin at 100 uM
[6] = target: T2, Calpain-1 catalytic subunit (Homo sapiens) (UniProt P07384); experiment: Inhibition of human purified calpain 1 at 100 uM
T2 sequence (whole entry): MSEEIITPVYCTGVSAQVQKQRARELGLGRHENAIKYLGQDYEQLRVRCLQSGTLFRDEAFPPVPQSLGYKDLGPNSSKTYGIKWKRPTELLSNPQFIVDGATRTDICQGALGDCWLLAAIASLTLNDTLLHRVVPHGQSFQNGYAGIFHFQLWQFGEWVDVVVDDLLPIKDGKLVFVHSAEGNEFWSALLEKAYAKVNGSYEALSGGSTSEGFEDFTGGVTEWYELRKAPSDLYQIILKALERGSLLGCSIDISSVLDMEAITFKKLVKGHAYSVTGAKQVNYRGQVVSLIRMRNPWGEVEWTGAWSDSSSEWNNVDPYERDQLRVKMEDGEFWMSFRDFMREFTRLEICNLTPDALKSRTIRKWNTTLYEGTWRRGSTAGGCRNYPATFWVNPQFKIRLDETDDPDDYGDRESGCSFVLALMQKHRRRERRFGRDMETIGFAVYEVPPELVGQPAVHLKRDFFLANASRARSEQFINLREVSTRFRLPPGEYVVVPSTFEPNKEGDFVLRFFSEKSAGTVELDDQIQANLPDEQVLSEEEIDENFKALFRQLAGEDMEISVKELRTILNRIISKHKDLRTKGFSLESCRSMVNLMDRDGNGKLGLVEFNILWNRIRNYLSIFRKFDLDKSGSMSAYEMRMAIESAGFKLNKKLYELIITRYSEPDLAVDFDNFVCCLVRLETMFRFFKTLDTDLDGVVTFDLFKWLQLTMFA

[7] = target: Cathepsin B (Homo sapiens) (UniProt P07858); experiment: Inhibition of human purified cathepsin B at 100 uM
[8] = target: Procathepsin L (Homo sapiens) (UniProt P07711); experiment: Inhibition of human purified cathepsin L at 100 uM
[9] = target: Tissue-type plasminogen activator (Homo sapiens) (UniProt P00750); experiment: Inhibition of human purified tissue-type plasminogen activator at 100 uM
Homo sapiens [10] = organism: Homo sapiens; experiment: Inhibition of human purified elastase at 100 uM
[11] = target: T3, Coagulation factor XII (Homo sapiens) (UniProt P00748); experiment: Inhibition of human purified coagulation factor 12a at 100 uM
T3 sequence (whole entry): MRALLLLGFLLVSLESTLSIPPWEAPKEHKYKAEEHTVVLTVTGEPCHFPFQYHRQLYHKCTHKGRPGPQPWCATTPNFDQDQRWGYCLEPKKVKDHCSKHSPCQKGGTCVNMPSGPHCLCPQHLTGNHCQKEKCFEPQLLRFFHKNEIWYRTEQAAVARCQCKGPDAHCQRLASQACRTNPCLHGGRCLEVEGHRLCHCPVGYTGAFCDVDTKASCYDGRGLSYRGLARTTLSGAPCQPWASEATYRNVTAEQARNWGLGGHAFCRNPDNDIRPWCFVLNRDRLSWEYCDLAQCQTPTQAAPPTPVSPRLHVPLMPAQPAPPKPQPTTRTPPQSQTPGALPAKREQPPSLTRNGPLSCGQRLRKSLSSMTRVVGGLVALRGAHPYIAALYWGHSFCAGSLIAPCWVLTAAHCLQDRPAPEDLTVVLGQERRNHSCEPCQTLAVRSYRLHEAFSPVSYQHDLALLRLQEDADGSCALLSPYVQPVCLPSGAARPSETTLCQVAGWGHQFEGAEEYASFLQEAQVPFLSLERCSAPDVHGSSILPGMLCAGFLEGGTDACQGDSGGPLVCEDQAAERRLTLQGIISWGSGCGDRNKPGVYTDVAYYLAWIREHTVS

[12] = target: Plasminogen (Homo sapiens) (UniProt P00747); experiment: Inhibition of human purified plasmin at 100 uM
Trypsin (Homo sapiens) = Trypsin (Homo sapiens) (UniProt P07477+P07478+P35030); experiment: Inhibition of human purified trypsin at 100 uM; assay type: protein assay

Chain of Procathepsin L (Homo sapiens) (P07711 114-333 limits assumed): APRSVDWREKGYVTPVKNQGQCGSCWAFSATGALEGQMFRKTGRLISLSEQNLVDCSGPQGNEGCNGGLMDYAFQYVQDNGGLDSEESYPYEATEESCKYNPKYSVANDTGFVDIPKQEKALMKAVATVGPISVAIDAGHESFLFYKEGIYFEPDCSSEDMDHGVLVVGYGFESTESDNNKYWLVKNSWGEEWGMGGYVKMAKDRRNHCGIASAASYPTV
Chain of Tissue-type plasminogen activator (Homo sapiens) (P00750 36-562 limits assumed): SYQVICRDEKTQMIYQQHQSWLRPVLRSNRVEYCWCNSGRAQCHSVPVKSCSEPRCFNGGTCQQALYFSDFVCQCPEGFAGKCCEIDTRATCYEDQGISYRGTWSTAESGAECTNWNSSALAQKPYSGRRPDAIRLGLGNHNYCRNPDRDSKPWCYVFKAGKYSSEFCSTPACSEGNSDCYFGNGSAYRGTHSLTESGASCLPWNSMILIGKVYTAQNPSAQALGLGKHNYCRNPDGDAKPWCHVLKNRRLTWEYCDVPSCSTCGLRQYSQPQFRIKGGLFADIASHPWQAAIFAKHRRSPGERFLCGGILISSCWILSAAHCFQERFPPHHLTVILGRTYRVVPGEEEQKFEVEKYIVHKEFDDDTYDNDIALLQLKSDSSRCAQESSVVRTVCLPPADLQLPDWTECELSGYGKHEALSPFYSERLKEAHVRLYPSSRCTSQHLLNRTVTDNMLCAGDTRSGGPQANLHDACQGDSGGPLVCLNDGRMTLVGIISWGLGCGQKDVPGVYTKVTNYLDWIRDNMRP
Chain of Plasminogen (Homo sapiens) (P00747 97-580 limits assumed): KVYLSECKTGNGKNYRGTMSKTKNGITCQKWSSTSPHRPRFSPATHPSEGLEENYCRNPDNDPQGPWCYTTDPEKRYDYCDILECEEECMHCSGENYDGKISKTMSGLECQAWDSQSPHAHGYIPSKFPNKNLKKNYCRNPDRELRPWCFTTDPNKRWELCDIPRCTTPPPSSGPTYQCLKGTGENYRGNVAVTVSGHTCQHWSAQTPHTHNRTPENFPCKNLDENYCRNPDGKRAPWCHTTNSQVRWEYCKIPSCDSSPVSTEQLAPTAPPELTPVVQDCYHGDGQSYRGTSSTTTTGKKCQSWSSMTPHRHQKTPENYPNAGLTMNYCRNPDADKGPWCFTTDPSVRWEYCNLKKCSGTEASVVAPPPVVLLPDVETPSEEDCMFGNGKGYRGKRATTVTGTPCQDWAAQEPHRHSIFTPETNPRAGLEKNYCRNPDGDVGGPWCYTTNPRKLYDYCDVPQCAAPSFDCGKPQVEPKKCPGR
Chain of Plasminogen (Homo sapiens) (P00747 581-810 limits assumed): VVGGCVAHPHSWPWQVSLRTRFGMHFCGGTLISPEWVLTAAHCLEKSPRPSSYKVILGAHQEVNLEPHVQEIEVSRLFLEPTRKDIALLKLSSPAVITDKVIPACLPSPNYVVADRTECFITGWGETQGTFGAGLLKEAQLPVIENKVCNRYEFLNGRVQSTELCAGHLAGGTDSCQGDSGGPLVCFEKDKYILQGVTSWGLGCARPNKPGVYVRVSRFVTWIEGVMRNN

With `Cc1cc(C(=O)N[C@@H](CC(=O)NCC(C)(C)C)C(=O)N[C@@H](CCc2ccccc2)C(=O)NCc2ccccc2)no1` the CC50 [1] was 27 nM.
With `Cc1ccc(CNC(=O)[C@H](CCc2ccccc2)NC(=O)[C@H](CCc2ccccc2)NC(=O)[C@H](CCc2ccccc2)NC(=O)c2cnc(C)cn2)cc1` the CC50 [1] was 130 nM, the pIC50 [2] was 7.80 and the pIC50 [3] was 7.28.
`CC(C)(C)CNC(=O)C[C@H](NC(=O)CCc1ccccc1)C(=O)N[C@@H](Cc1cccnc1)C(=O)NCc1ccccc1Cl` showed a CC50 [1] of 61 nM.
Compound `CC(=O)N[C@@H](CC(=O)NCC(C)(C)C)C(=O)N[C@@H](CCc1ccccc1)C(=O)NCc1ccccc1` has a CC50 [1] of 890 nM.
In the case of `CC(C)(C)CNC(=O)C[C@H](NC(=O)c1ccc(OCc2ccccc2)cc1)C(=O)N[C@@H](CCc1ccccc1)C(=O)NCc1ccccc1Cl`, the CC50 [1] was 4.7 nM.
In the case of `CC(C)(C)CNC(=O)C[C@H](NC(=O)C(C)(C)C)C(=O)N[C@@H](CCc1ccccc1)C(=O)NCc1ccccc1`, the CC50 [1] was 210 nM.
With `Cc1cc(C(=O)N[C@@H](CC(=O)NCC(C)(C)C)C(=O)N[C@@H](CCc2ccccc2)C(=O)NCc2ccccc2Cl)no1` the inhibition [4] was “inactive”, the CC50 [1] was 41 nM and the inhibition (Homo sapiens [5]) was “inactive”. For the same compound, the inhibition [6] was “inactive”, the inhibition [7] was “inactive” and the inhibition [8] was “inactive”. The inhibition [9] was “inactive”, the inhibition (Homo sapiens [10]) was “inactive” and the inhibition [11] was “inactive”. For the same compound, the inhibition [12] was “inactive” and the inhibition (Trypsin (Homo sapiens)) was “inactive”.
For `CC(C)C[C@H](NC(=O)CNC(=O)c1cc(Cl)ccc1Cl)B(O)O` [IXAZOMIB], the CC50 [1] was 14 nM.
With `Cc1cc(C(=O)N[C@@H](CC(=O)NCC(C)(C)C)C(=O)N[C@@H](Cc2ccc(Cl)cc2)C(=O)NCc2ccccc2Cl)no1` the CC50 [1] was 1100 nM and the pIC50 [2] was 7.80.
`CC(C)(C)CNC(=O)C[C@H](NC(=O)Cc1ccc(F)cc1)C(=O)N[C@@H](CCc1ccccc1)C(=O)NCc1ccccc1Cl` showed a CC50 [1] of 94 nM.
Compound `Cc1cc(C(=O)N[C@@H](CC(=O)NCC(C)(C)C)C(=O)N[C@@H](C)C(=O)NCc2ccccc2Cl)no1` has a CC50 [1] of 200 nM.
In the case of `CC(C)(C)CNC(=O)C[C@H](NC(=O)c1ccc(C(C)(C)C)cc1)C(=O)N[C@@H](CCc1ccccc1)C(=O)NCc1ccccc1`, the CC50 [1] was 31 nM.
Compound `Cc1cc(C(=O)N[C@@H](CC(=O)NCC(C)(C)C)C(=O)N[C@@H](Cc2ccncc2)C(=O)NCc2ccccc2Cl)no1` has a CC50 [1] of 210 nM.
For `Cc1ccc(CNC(=O)[C@H](CCc2ccccc2)NC(=O)[C@H](CC(=O)NCC(C)C)NC(=O)c2cc(C)on2)cc1`, the CC50 [1] was 250 nM and the pIC50 [2] was 8.14.
Compound `C[C@H](NC(=O)[C@H](CC(=O)NCC(C)(C)C)NC(=O)CCc1ccccc1)C(=O)NCc1ccccc1Cl` has a CC50 [1] of 39 nM.
`Cc1ccc(CNC(=O)[C@H](CCc2ccccc2)NC(=O)[C@H](CNC(=O)CC(C)(C)C)NC(=O)c2cc(C)on2)cc1` showed a pIC50 [2] of less than 6.00.
With `CC(C)(C)CNC(=O)C[C@H](NC(=O)CN1CCCCC1)C(=O)N[C@@H](CCc1ccccc1)C(=O)NCc1ccccc1` the CC50 [1] was 180 nM.
Compound `CC(C)(C)CNC(=O)C[C@H](NC(=O)Cc1ccc(F)cc1)C(=O)N[C@@H](CCc1ccccc1)C(=O)NCc1ccccc1` has a CC50 [1] of 120 nM.
Compound `CC(C)(C)CNC(=O)C[C@H](NC(=O)c1ccc(OCc2ccccc2)cc1)C(=O)N[C@@H](CCc1ccccc1)C(=O)NCc1ccccc1` has a CC50 [1] of 10 nM.
Work on `CC(C)(C)CNC(=O)C[C@H](NC(=O)C(=O)c1c[nH]c2ccccc12)C(=O)N[C@@H](CCc1ccccc1)C(=O)NCc1ccccc1` yielded a CC50 [1] of 2.6 nM.
Work on `Cc1cc(C(=O)N[C@@H](CC(=O)NCC(C)(C)C)C(=O)N[C@@H](Cc2cccnc2)C(=O)NCc2ccccc2Cl)no1` yielded a CC50 [1] of 170 nM.
`CCCNC(=O)C[C@H](NC(=O)c1cc(C)on1)C(=O)N[C@@H](CCc1ccccc1)C(=O)NCc1ccc(C)cc1` gave a pIC50 [2] of 6.80.
`Cc1ccc(CNC(=O)[C@H](CCc2ccccc2)NC(=O)[C@H](Cc2nc(C(C)(C)C)no2)NC(=O)c2cc(C)on2)cc1` gave a CC50 [1] of 1500 nM, a pIC50 [2] of 7.03 and a pIC50 [3] of 5.77.
Work on `CC(C)(C)CNC(=O)C[C@H](NC(=O)CCc1ccccc1)C(=O)N[C@@H](CCc1ccccc1)C(=O)NCc1ccccc1Cl` yielded a CC50 [1] of 20 nM.
With `Cc1ccc(CNC(=O)[C@H](CCc2ccccc2)NC(=O)[C@H](CNC(=O)CC(C)(C)C)NC(=O)C(=O)c2c[nH]c3ccccc23)cc1` the pIC50 [2] was 6.04.
Compound `CC(C)(C)CNC(=O)C[C@H](NC(=O)CCc1ccccc1)C(=O)N[C@@H](CCc1ccccc1)C(=O)NCC1CC1` has a CC50 [1] of 150 nM, a pIC50 [2] of 7.92 and a pIC50 [3] of 6.44.
In the case of `CC(C)(C)CNC(=O)C[C@H](NC(=O)C(=O)c1c[nH]c2ccccc12)C(=O)N[C@@H](CCc1ccccc1)C(=O)NCc1ccccc1Cl`, the inhibition [4] was “inactive”, the CC50 [1] was 2.4 nM and the inhibition (Homo sapiens [5]) was “inactive”. The inhibition [6] was “inactive”, the inhibition [7] was “inactive” and the inhibition [8] was “inactive”. The inhibition [9] was “inactive”, the inhibition (Homo sapiens [10]) was “inactive” and the inhibition [11] was “inactive”. The inhibition [12] was “inactive” and the inhibition (Trypsin (Homo sapiens)) was “inactive”.
For `CC(C)(C)CNC(=O)C[C@H](NC(=O)C(=O)c1c[nH]c2ccccc12)C(=O)N[C@@H](Cc1ccncc1)C(=O)NCc1ccccc1Cl`, the CC50 [1] was 6 nM.
`Cc1ccc(CNC(=O)[C@H](CCc2ccccc2)NC(=O)[C@H](Cc2nc(C(C)(C)C)no2)NC(=O)C(=O)c2c[nH]c3ccccc23)cc1` showed a CC50 [1] of 36 nM, a pIC50 [2] of 7.94 and a pIC50 [3] of 7.52.
`CC(C)(C)CNC(=O)C[C@H](NC(=O)CCc1ccccc1)C(=O)N[C@@H](CCc1ccccc1)C(=O)NCc1ccccc1` gave a CC50 [1] of 89 nM.
`CC(C)C[C@H](NC(=O)[C@H](Cc1ccccc1)NC(=O)c1cnccn1)B(O)O` [BORTEZOMIB] gave a CC50 [1] of 5.2 nM.
`Cc1ccc(CNC(=O)[C@H](CCc2ccccc2)NC(=O)[C@H](CNC(=O)CC(C)(C)C)NC(=O)CCc2ccccc2)cc1` showed a pIC50 [2] of less than 6.00.
